Data as given in US12637661B2, “Methods of enhancing stem cell differentiation into beta cells” (Vertex Pharmaceuticals Incorporated, priority 2018, dated 2026).

Tests used:
EZH2 = EZH2 (Homo sapiens, UniProt Q15910); conditions: cited from earlier work
[1] = system: stage 5 cells of hESC line (D97, D114, and D241 HUES8); experiment: Stage 5 of directed differentiation of hESC line treated with EZH2 inhibitor, HDAC inhibitor or combination; format: cell-based, human; conditions: for percentage of pre-SC-β cells (C-PEP+, NKX6-1+): stage 5, FIG. 15; for performance compared with other inhibitors of the same class: stage 5, FIGS. 14 and 15; for proportion of all β cell types: stage 5, FIG. 14
Procedure: The mRNA expression of NGN3 was investigated in each steps of directed differentiation described herein (FIG. 5), and it was observed that cells expressed NGN3 to initiate SC-β cell differentiation (FIG. 7). The effects of inhibition of histone methylation and deacetylation on SC-β cell differentiation were investigated (FIG. 6). Stage 5 of the directed differentiation as described herein (FIGS. 5-6) in hESC line (D97, D114, and […] HUES8) was treated with an EZH2 inhibitor (DZNep), HDAC inhibitor (KD5170), and a combination thereof (FIG. 6). Candidate inhibitor screening was performed as described in FIG. 18. Inhibition of EZH2 or HDAC in stage 5 (D97 HUES8) increased endocrine cells and SC-β cells (FIG. 8). […] SC-β cells comprised 35.4% at the end of stage 5 with DZNep and KD5170. […] Combined inhibition of EZH2 and HDAC in stage 5 was tested as described in FIG. 17. Combined inhibition of EZH2 and HDAC in stage 5 ([…] HUES8) increased Neorogenin3+ progenitors in stage 5 (FIGS. 12-13). Combined inhibition of EZH2 and HDAC in stage 5 increased NKX6.1+ progenitor cells (FIG. 16).

EZH2, sequence (Q15910 whole entry, species assumed): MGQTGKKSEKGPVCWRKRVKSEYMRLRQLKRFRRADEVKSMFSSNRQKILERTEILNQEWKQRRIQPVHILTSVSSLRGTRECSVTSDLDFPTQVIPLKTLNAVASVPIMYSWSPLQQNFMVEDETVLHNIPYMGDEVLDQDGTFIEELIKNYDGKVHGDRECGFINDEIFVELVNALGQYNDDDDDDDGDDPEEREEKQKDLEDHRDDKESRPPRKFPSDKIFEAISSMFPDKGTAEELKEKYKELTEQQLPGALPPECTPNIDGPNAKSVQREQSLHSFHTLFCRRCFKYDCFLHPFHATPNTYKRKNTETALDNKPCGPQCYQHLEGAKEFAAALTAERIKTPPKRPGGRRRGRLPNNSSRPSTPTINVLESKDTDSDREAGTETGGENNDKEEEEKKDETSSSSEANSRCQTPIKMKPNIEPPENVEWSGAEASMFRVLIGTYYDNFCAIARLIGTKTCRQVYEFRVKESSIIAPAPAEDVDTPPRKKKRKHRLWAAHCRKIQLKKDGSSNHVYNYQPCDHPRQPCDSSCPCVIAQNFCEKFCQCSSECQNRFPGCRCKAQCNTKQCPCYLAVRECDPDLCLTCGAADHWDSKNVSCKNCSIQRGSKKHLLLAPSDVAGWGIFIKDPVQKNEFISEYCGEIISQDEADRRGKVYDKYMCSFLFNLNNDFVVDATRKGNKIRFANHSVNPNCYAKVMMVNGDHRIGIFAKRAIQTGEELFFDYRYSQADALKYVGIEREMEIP
EZH2, sequence (O75530 whole entry partner, species assumed): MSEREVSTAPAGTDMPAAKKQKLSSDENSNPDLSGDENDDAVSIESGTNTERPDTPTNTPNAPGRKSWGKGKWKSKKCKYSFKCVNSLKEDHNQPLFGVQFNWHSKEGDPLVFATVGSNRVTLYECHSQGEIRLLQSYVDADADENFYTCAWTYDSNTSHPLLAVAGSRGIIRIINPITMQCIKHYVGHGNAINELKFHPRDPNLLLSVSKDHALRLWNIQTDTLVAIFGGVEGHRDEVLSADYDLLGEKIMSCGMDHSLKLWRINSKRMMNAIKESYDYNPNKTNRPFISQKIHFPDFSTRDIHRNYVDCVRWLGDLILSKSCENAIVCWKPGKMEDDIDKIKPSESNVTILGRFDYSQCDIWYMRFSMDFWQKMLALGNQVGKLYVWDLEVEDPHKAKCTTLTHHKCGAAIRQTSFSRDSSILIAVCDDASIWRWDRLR
EZH2, sequence (Q15022 whole entry partner, species assumed): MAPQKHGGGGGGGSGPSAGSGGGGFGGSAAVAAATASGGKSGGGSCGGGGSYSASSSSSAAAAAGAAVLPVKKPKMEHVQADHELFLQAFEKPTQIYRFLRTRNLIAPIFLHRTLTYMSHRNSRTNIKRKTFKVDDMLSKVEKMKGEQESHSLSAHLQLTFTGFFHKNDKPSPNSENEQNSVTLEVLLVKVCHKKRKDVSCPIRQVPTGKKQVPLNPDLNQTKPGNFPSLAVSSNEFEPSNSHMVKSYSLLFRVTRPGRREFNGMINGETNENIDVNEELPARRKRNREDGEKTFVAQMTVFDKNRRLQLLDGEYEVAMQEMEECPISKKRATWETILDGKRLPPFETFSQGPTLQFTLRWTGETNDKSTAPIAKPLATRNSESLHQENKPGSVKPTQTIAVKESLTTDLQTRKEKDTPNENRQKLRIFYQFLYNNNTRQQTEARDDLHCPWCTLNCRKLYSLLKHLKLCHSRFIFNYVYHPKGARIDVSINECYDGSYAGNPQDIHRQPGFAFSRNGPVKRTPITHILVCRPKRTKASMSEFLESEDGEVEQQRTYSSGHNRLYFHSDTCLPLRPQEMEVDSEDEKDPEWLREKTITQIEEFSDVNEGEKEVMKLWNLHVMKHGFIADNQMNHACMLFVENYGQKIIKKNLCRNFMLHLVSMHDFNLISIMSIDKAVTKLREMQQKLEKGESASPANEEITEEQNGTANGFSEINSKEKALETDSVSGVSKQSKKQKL

## Nc1nccc2c1ncn2[C@@H]1C=C(CO)[C@@H](O)[C@H]1O [DZNep, 3-deazaneplanocin A]
EZH2
  selectivity / specificity for EZH2 (in words): may not be specific to EZH2
[1]; 1 μM throughout stage 5
  viability: without affecting viability
[1]; 1 μM throughout stage 5, FIGS. 19-21
  (VMAT1+INS−) EC population removed: more than half
[1]; stage 5
  proportion / differentiation of endocrine cells (CHGA+): increased
[1]
  percentage of pre-SC-β cells (C-PEP+, NKX6-1+): increased
  performance compared with other inhibitors of the same class: outperforms other EZH2 inhibitors
[1]; stage 5, FIG. 16
  progenitors cells (NKX6-1+): increased
[1]; stage 5, FIG. 19
  VMAT1+INS− EC population: specific decrease
[1]; stage 5, FIG. 20
  NKX6.1-ChromA+ PH cells: concomitant increase
[1]; stage 5, FIG. 21
  NKX6.1+INS+ SC-β cell population: unaffected

## CC[C@H](C)n1cc(C)c2c(C(=O)NCc3c(C)cc(C)[nH]c3=O)cc(-c3ccc(N4CCNCC4)nc3)cc21 [GSK126]
[1]
  proportion of all β cell types: did not increase

## CC(=O)SCC(=O)c1ccc(NS(=O)(=O)c2ccc(OCCCN(C)C)cc2)nc1 [KD5170]
[1]
  percentage of pre-SC-β cells (C-PEP+, NKX6-1+): increased
  performance compared with other inhibitors of the same class: outperforms other HDAC inhibitors

## O=C(CCCCCCC(=O)Nc1ccccc1)NO [SAHA]
[1]
  percentage of pre-SC-β cells (C-PEP+, NKX6-1+): did not increase

## CC(/C=C/C(=O)NO)=C\[C@@H](C)C(=O)c1ccc(N(C)C)cc1 [TSA]
[1]
  percentage of pre-SC-β cells (C-PEP+, NKX6-1+): did not increase

## CCCc1cc(C)[nH]c(=O)c1CNC(=O)c1cc(-c2ccc(N3CCN(C(C)C)CC3)nc2)cc2c1cnn2C(C)C [UNC1999]
EZH2
  selectivity / specificity for EZH2 (in words): less selective
[1]
  proportion of all β cell types: did not increase

## CCCC(=O)[O-].[Na+] [sodium butyrate]
[1]
  percentage of pre-SC-β cells (C-PEP+, NKX6-1+): did not increase
